Assays:
N2a cells = tested on: N2a cells
Procedure: (§1) Cytotoxicity effects for each drug were measured by the colorimetric MTT assay. The MTT assay includes a yellow tetrazole that is reduced to purple formazan in living cells. In this implementation, solubilization solution (e.g., dimethyl sulfoxide, an acidified ethanol solution, or a solution of the detergent sodium dodecyl sulfate in diluted hydrochloric acid) was added to dissolve the insoluble purple formazan product into a colored solution. The absorbance of this colored solution was quantified by measuring at a certain wavelength (e.g, between 500 and 600 nm) by a spectrophotometer where the degree of light absorption depends on the solvent. The MTT assay can provide a useful measure of cell viability and proliferation. To quantify cytotoxicity, 10 μl of 10 mg/ml of MTT reagent was added to a well containing cells, and the cells were incubated at 37° C. for 4 hours. The supernatant was aspirated and the purple-colored formazan product was dissolved in 100 μl of DMSO. Absorbance was measured at 590 nm. The average of triplicate wells was taken for each concentration of the drug, and cell viability was calculated by substituting the corresponding mean absorbance values using the following equation:
(§2) A T-test (*=p<0.01; 0 μM=untreated cells) was used to compare toxicity between the two drugs at different concentrations.

HT 1080 cells = tested on: HT 1080 cells
Procedure: as §1, §2

[1] = tested on: cisplatin-treated HT 1080 cells; experiment: Protective potential of quinoxaline pre-treatment on cisplatin-treated HT 1080 cells; assay type: cell-based, human; settings: quinoxaline pre-treatment 1 hour, then 100 μM cisplatin 24 hours
Procedure: as §1, with “equation: […]” for “equation:”
(§3) Cells were plated at a density of 20,000 cells per well overnight, followed by a pretreatment with varying concentrations of quinoxaline for one hour. […]

HEI-OC1 cells [2] = assay type: cell-based; settings: 24 hours
Procedure: As previously done for HT 1080 and N2a cells, the potential cytotoxicity of quinoxaline was measured in HEI-OC1 cells. HEI-OC1 cells were treated with a crescent dosage of quinoxaline (i.e., 200 nM, 500 nM, 1 μM, 10 μM, 50 μM) for 24 hours and submitted to MIT analyses.

[3] = tested on: cisplatin-treated N2a cells; settings: 1 μM quinoxaline pre-treatment, then 100 μM cisplatin
Procedure: as §1, with “equation: […]” for “equation:”
as §3

HEI-OC1 cells [4] = experiment: CYQUANT cell proliferation assay (DNA content) in HEI-OC1 cells; assay type: cell-based; settings: 200 nM, 500 nM, 1 μM, 5 μM for 24 hours, t-test p<0.001, most noticeable at 200 and 500 nM
Procedure: In an implementation, HEI-OC1 cells were treated with different concentrations (e.g., 200 nM, 500 nM, 1 μM, and 5 μM) of quinoxaline for 24-hours. Untreated cells were used as control groups. To quantify potential changes in cell proliferation following the treatment, DNA isolated from treated and untreated cells was submitted to CYQUANT analysis (Invitrogen, Grand Island, N.Y.), following the manufacturer's instructions for cell proliferation assay. The CYQUANT assay is based on the principle that cell number is proportional to the measurement of cellular DNA content. However, the use of the CYQUANT assay is offered by way of example only and is not meant to be restrictive of the present disclosure. In other embodiments, other types of cell proliferation assays can be used to quantify potential changes in cell proliferation. FIG. 3B illustrates the DNA content of untreated cells and quinoxaline-treated cells. […] Quinoxaline's effect in cell proliferation was most noticeable when cells were treated with lower concentrations (i.e., 200 nm and 500 nM) of the drug.

[5] = tested on: cisplatin-treated HEI-OC1 cells; experiment: Protective potential of quinoxaline pre-treatment on cisplatin-treated HEI-OC1 cells; assay type: cell-based
Procedure: HEI-OC1 cells were plated at a density of 20,000 cells per well overnight, followed by a pre-treatment with varying concentrations of quinoxaline (i.e., 200 nM, 1 μM, 10 μM, and 50 μM) for one hour.

[6] = tested on: cochlear hair cells (organ of Corti); experiment: In vivo chemoprotective and proliferative effects on cochlear hair cells of cisplatin-treated mice; settings: C57BL/6 mice
Procedure: The inner ear neurosensory epithelia, the organ of Corti (OC), were analyzed. FIGS. 4A through 4D illustrate the outer hair cells (OHCs) and inner hair cells (IHCs) in the middle turn of the cochlea of adult C57BL/6 mice submitted to different treatments. The control group was the untreated cochlea, illustrated in FIG. 4A.

| Compound | cell response compared with HT 1080 cells (N2a cells) | cytotoxicity (HT 1080 cells) | effect on cell proliferation (total number of cells) (HT 1080 cells; HT 1080 cells, 0.5 μM) | overall cytotoxicity versus 100 μM cisplatin only [1] | cell death (HEI-OC1 cells [2]; HEI-OC1, dosages higher than 10 μM) | cell proliferation (HEI-OC1 cells [2]; HEI-OC1, lower doses of quinoxaline) | sensitivity of HEI-OC1 cells (HEI-OC1 cells [2]; quinoxaline concentrations higher than 5 μM) | cell proliferation [3] | DNA content (cell proliferation) versus untreated cells (HEI-OC1 cells [4]) | survival rate ([5]; 200 nM quinoxaline 1 hour pre-treatment + 200 μM cisplatin 24 hours) [%] | survival rate ([5]; 1 μM quinoxaline 1 hour pre-treatment + 200 μM cisplatin 24 hours) [%] | cell survival ([5]; pre-treated with higher than 10 μM quinoxaline + 200 μM cisplatin) | cell proliferation (numbers of supernumerary cells) ([6]; low doses (e.g., 15 mg)) | supernumerary myosin VIIa-positive cells at the IHC region ([6]; quinoxaline pre-treated ears) | myosin VIIa-positive hair cells in middle turn of cochlea ([6]; quinoxaline pre-treatment + cisplatin 20 mg/Kg, versus cisplatin only) |
| --- | --- | --- | --- | --- | --- | --- | --- | --- | --- | --- | --- | --- | --- | --- | --- |
| N.N.[Cl][Pt][Cl] [cisplatin, reference compound] | No statistically significant differences | – | – | – | – | – | – | – | – | – | – | – | – | – | – |
| c1ccc2nccnc2c1 [quinoxaline] | No statistically significant differences | consistently lower than that of cisplatin | modest, but quantifiable, positive effect on cell proliferation | significantly reduced overall cytotoxicity | smaller, but quantifiable cell death | increase in cell proliferation | particularly sensitive | promoted their proliferation | statistically significant increase in DNA content | 25 | 40 | No statistically significant differences in cell survival | increase in the numbers of supernumerary cells | supernumerary myosin VIla-positive cells were observed | myosin VIla-positive hair cells were still observed |

Reference: US9925185B1, “Treatment and prevention methods for mammalian neurosensory hair cells loss” (Creighton University, priority 2014, dated 2018)
